In patent US6284461A, “Use of inhibitors in reporter assays” (priority 1998, dated 2001):
“Also recorded” adds a separate entry of the source.

Experiments:
[1] = target: T1, cytosolic beta-lactamase reporter enzyme (Escherichia coli, UniProt P62593); experiment: Agonist titration in CHO GPCR reporter cells with or without inhibitor pretreatment (Example VI); format: cell-based
T1 construct: CCF2/AM read-out

[2] = target: T1, cytosolic beta-lactamase reporter enzyme; experiment: Inhibition of cytosolic beta-lactamase reporter activity in live Jurkat cells, CMV promoter (Example II); format: cell-based; details: 300 μM inhibitor, one hour at 37° C.
Method: (§1) One day before the assay, CHO cells (an adherent cell line) expressing a cytosolic beta-lactamase reporter gene (WO 96/30540 to Tsien et al., published Oct. 3, 1996)) under control of a G-protein coupled receptor (GPCR) were plated in six clear-bottom 96-well microtiter plates at 75% confluency. The cells in half of the wells were stimulated overnight with agonist to the GPCR. Thus, these cells expressed high levels of the reporter enzyme encoded by the reporter gene. The other half of the cells were maintained without agonist in media having dialyzed fetal calf serum. This population is representative of cells with only background levels of beta-lactamase expression. […] After thirty minutes of incubation, the fluorescence from the wells was determined using a microtiter plate fluorimeter with excitation at 395/20nm and emission at 460/40nm and 530/30nm. The raw fluorescence emission values were corrected for the signal from wells without cells. […]
Jurkat cells (a non-adherent cell line) expressing a cytosolic beta-lactamase reporter enzyme (WO 96/30540 to Tsien et al., published Oct. 3, 1996) under the control of the constitutively active cytomegalovirus early promoter (CMV promoter) were incubated with three inhibitors: clavulanic acid, imipenem and HOB-1-70. […] Cells were treated for one hour at 37° C., after which beta-lactamase reporter activity was assessed as in Example I (FIG. 2).

[3] = target: T1, cytosolic beta-lactamase reporter enzyme; experiment: Irreversibility of intracellular beta-lactamase inhibition in CHO GPCR reporter cells (Example IV); format: cell-based; details: washed
beta-lactamase = details: cited from earlier work
[4] = test system: cytosolic beta-lactamase activity; experiment: Background versus de novo beta-lactamase activity in CHO GPCR reporter cells after inhibitor pretreatment (Example V); format: cell-based; details: 300 μM clavulanic acid sixteen hours, washed, unstimulated, three hours
Method: as §1, with “expression. These unstimulated cells expressed the reporter enzyme at levels lower than in the stimulated cells. After sixteen hours, the media was removed, the stimulated cells and the unstimulated cells were washed once by replacing the culture media by […] (BSA). Because CHO cells are adherent, aspiration is the preferred method of removing culture media, which is then replaced with wash media or wash solution.” for “expression.”

[5] = test system: cytosolic beta-lactamase reporter; experiment: Wash-out of inhibitor from Jurkat C2 cells (M1 receptor, NF-AT beta-lactamase reporter) (Example III); format: cell-based
Method: as §1
These studies used a Jurkat cell clone (referred to as "C2 cells" ) containing the M1 -receptor and a cytosolic beta-lactamase reporter gene (WO 96/30540 to Tsien et al., published Oct. 3, 1996)) regulated by a NF-AT response element. […] Higher beta-lactamase activity was detected in the cells as the time after the inhibitor was washed out of the cells increased.

cytosolic beta-lactamase = target: T2, cytosolic beta-lactamase (Escherichia coli, UniProt P62593); experiment: Inhibitor added together with CCF2/AM in CHO nuclear receptor beta-lactamase reporter cells (Example IX); format: cell-based
T2 construct: CCF2/AM read-out
T2 sequence (P62593 24-286 limits assumed): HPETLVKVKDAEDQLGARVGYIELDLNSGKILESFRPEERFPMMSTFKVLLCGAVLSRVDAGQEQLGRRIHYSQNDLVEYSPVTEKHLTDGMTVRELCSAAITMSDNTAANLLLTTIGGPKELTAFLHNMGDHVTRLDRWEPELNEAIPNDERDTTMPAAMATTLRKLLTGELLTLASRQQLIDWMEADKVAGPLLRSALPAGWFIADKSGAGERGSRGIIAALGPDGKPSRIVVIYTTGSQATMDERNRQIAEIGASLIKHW

[6] = test system: background beta-lactamase activity (cytosolic); experiment: Background beta-lactamase activity in CHO reporter cells after blocking enzyme synthesis (Example I); format: cell-based; details: 40 μg/ml cycloheximide, low and high expressing CHO cells, even after 5 hours
Method: as §1, with “expression. These unstimulated cells expressed the reporter enzyme at levels lower than in the stimulated cells. After sixteen hours, the media was removed, the stimulated cells and the unstimulated cells were washed once by replacing the culture media by aspiration with an equal volume of phosphate buffered saline and then treated with 40 μg/ml cycloheximide in RPMI medium 1640 with 0.1% bovine serum albumin (BSA).” for “expression.”

T1 sequence (P62593 24-286 limits assumed): as above

| Structure (SMILES) | background beta-lactamase activity in agonist assay ([1]; CHO cells pretreated with 300 μM clavulanic acid sixteen hours, washed, three hours agonist) | signal-to-noise ratio of agonist assay ([1]; cells pretreated with clavulanic acid versus untreated) | reduction of cytosolic beta-lactamase reporter activity [2] | persistence of inhibition of intracellular beta-lactamase reporter enzyme ([3]; 300 μM clavulanic acid pretreatment, cycloheximide) | ratio values (460/40nm over 530/30nm emission) ([3]; 300 μM clavulanic acid sixteen hours, 40 μg/ml cycloheximide, low and high expressing cells, even after five hours) | molecules of inhibitor hydrolyzed on average before the beta-lactamase is irreversibly inactivated (beta-lactamase; beta-lactamase used in the cell based assays, source not given) | reversibility of beta-lactamase inhibition (beta-lactamase; literature (Bulychev et al. 1995; Knowles 1985)) | background beta-lactamase reporter activity after pretreatment [4] | beta-lactamase activity, no-wash control ([5]; 100 microM clavulanic acid for sixteen hours, inhibitor present throughout, with or without 100 microM carbacol) | de novo beta-lactamase activity after wash-out of inhibitor ([5]; 100 microM clavulanic acid sixteen hours, washed once, 0-3 hours after wash, then 100 microM carbacol for three hours) | ratio of fluorescence from stimulated cells over unstimulated cells (cytosolic beta-lactamase; 16.7 microμ clavulanic acid present) | improvement in signal-to-noise ratio (cytosolic beta-lactamase; 16.7 microμ clavulanic acid versus absence of inhibitor) | background (unstimulated) ratio levels (cytosolic beta-lactamase; CHO nuclear receptor reporter cells, 16.7 microμ clavulanic acid present during CCF2/AM loading) | beta-lactamase activity in stimulated cells (cytosolic beta-lactamase; agonist-stimulated CHO cells, 16.7 microμ clavulanic acid present during CCF2/AM loading) | ratio values (460/40nm over 530/30nm emission) [6] |
| --- | --- | --- | --- | --- | --- | --- | --- | --- | --- | --- | --- | --- | --- | --- | --- |
| O=C(O)[C@H]1/C(=C/CO)O[C@@H]2CC(=O)N21 [clavulanic acid] | much lower | the signal-to-noise ratio was improved | reduced the reduced beta-lactamase activity in these cells to levels found in cells that do not have the reporter; also recorded: essentially reduced reporter beta-lactamase activity to values found for a naive Jurkat population | irreversibly inhibited; also recorded: remains inhibited for at least five hours | about 0.2 | about 100 molecules | irreversible | effective means of lowering the background beta-lactamase reporter activity; also recorded: readily inhibited | beta-lactamase activity, both residual and synthesized de novo, was reduced | Stimulation of cells, even immediately after the wash, results in de novo synthesis of beta-lactamase that can be detected | 32 fold | almost a three-fold improvement | 0.090±0.015 | did not change significantly | – |
| C[C@@H]1C[C@@H]([C@H](O)CC2CC(=O)NC(=O)C2)C(=O)[C@@H](C)C1 [cycloheximide] | – | – | – | – | – | – | – | – | – | – | – | – | – | – | above 0.2 |
| C[C@@H](O)[C@H]1C(=O)N2C(C(=O)O)=C(SCCN=CN)C[C@H]12 [imipenem] | – | – | did not have a similar effect | – | – | – | – | – | – | – | – | – | – | – | – |
